Where two headings read alike, the source gives them in different places.
Columns and labels:
[1] = test system: DMS273 cells constantly expressing Luc; assay: Target reporter protein (Luc) knockdown in cell, reporter protein assay; type: cell-based; conditions: Homo sapiens, DMS-273
In short: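 Nucleic acid lipid particles added at final 0.1 to 100 nmol/L to DMS273 human SCLC cells stably expressing Luc2, 24 hr exposure then 24 hr further culture after medium change. Luc quantified by Steady Glo luminescence after viable cell count; knockdown efficiency calculated and IC50 taken as concentration giving 50% Luc reduction.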

[2] = Nucleic acid encapsulation rate of nucleic acid lipid particles (FVII-siRNA); type: physicochemical
Method: A 3 mol/L aqueous sodium acetate solution (30 μL) and 9 μL of glycogen were added to 60 μL of the lipid particles retaining nucleic acids, and then 1.5 mL of ethanol was added thereto such that only the nucleic acids were precipitated while the lipid was dissolved. Then, the supernatant was removed by centrifugation. After the precipitates were air-dried for 15 minutes or longer, water was added thereto such that the precipitates were redissolved, and the concentration thereof was measured using Nanodrop NF1000 (Thermo Fisher Scientific), thereby quantifying the total nucleic acid concentration.
The nucleic acid concentration was quantified using a Quant-iT RiboGreen RNA Assay Kit (Thermo Fisher Scientific) according to the protocol. First, a 20×TE buffer included in the above kit was diluted with water, thereby obtaining a 1×TE buffer. TE represents Tris/EDTA (ethylenediaminetetraacetic acid). In order to quantify only the nucleic acid in the outer water phase, the dispersion liquid of lipid particles retaining nucleic acids was diluted 10,000× with the 1×TE buffer.
The 10,000× diluted dispersion liquid of lipid particles (100 μL) was put in a 96-well plate, then 100 μL of a RiboGreen reagent (reagent included in the Quanti-iT Ribogreen RNA Assay Kit described above) diluted 2000× with the 1×TE buffer was added to a sample, and fluorescence (excitation wavelength: 485 nm, fluorescence wavelength: 535 nm) was measured using a plate reader Infinit EF200 (TECAN), thereby quantifying the nucleic acid concentration in the outer water phase.
By using the total nucleic acid concentration obtained through the above steps and the quantified nucleic acid concentration in the outer water phase, the nucleic acid encapsulation rate of the nucleic acid lipid particles was calculated according to the following Equation. Nucleic acid encapsulation rate (%)=(total nucleic acid concentration−nucleic acid concentration in outer water phase)/total nucleic acid concentration×100 The results are shown in Table 2.
(§1) The Factor VII (FVII) protein was measured according to the method described in Nature Biotechnology (2010) 28, 172-176. C57BL6/J mice were randomly grouped (n=3). A dispersion liquid of nucleic acid lipid particles was prepared by the same method as that in <Preparation of nucleic acid lipid particles>, except that FVII-siRNA having the sequence described in Molecular Therapy (2009) 17, p. 878 was used instead of Luc-siRNA. The dispersion liquid was administered to the caudal vein of the mice at a dosage of 0.1 mg/kg. For comparison, PBS at the same volume was administered to the caudal vein of the mice. Twenty four hours after the administration, blood was collected from the caudal vena cava, thereby obtaining plasma. The amount of FVII protein was quantified using the obtained plasma and a Biophen FVII assay kit (Aniara).

[3] = Encapsulation rate of siRNA in nucleic acid lipid particles (Luc2-siRNA); type: physicochemical; conditions: compound/DSPC/cholesterol/DMG-PEG2000 50/10/38.5/1.5
In short: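 Encapsulation rate was calculated as (total − outer-phase siRNA)/total ×100. Total siRNA was quantified spectrophotometrically after lipid-dissolving ethanol precipitation, and unencapsulated siRNA by RiboGreen in TE (ex 485/em 535 nm). The particles were test lipid/DSPC/cholesterol/DMG-PEG2000 at 50/10/38.5/1.5, formed by microfluidic mixing with Luc2-siRNA at pH 4 and dialyzed against PBS.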

[4] = Particle size of nucleic acid lipid particles (FVII-siRNA); type: physicochemical
Method: The compounds described in Table 2, L-α-distearoylphosphatidylcholine (trade name: COATSOME® MC-8080; NOF corporation), cholesterol (trade name: Choesterol HP; NIPPON FINE CHEMICAL CO., LTD.), and 1,2-dimyristoyl-rac-glycero-3-(methylpolyoxyethylene 2000) (hereinafter, called DMG-PEG2000) (trade name: SUNBRIGHT® GM-020; NOF corporation) were dissolved in ethanol at a molar ratio of 50/10/38.5/1.5 such that the total lipid concentration became 20 mmol/L, thereby obtaining an oil phase.
An aqueous nucleic acid solution obtained by dissolving 5 mg of Luc2-siRNA having the sequence described in Biomacromolecules (2013) 14, p. 3905 in 1 mL of sterile water was diluted with 10 mmol/L acetate buffer having a pH 4 such that the nucleic acid concentration became 19.7 μmol/L, thereby obtaining a water phase. Then, the water phase and the oil phase were mixed together by a micromixer (see JP5288254B) using a syringe pump such that the volume ratio of water phase:oil phase became 3:1 (final ratio of siRNA/lipid=339 (mol/mol)), and the mixed solution was diluted 2× with PBS, thereby obtaining a dispersion liquid of nucleic acid lipid particles. The dispersion liquid was dialyzed (Slide-A-Lyzer G2, MWCO: 10 kD, Thermo Fisher Scientific) using a phosphate buffered saline such that ethanol was removed, thereby obtaining nucleic acid lipid particles.
The particle size of the nucleic acid lipid particles was measured by the same method as that in <Preparation of lipid particles>.
as §1

[5] = test system: Factor VII (FVII) protein; assay: Measurement of Factor VII (FVII) protein in mouse plasma after FVII-siRNA lipid particles; type: in vivo, C57BL6/J mice; conditions: 0.1 mg/kg caudal vein, plasma 24 hours after administration, PBS group = 100%
Method: as §1
The FVII amount in the plasma sample of each individual in the PBS administration group was regarded as 100%, and the ratio of the FVII amount in the plasma sample of each individual to 100% was adopted as a measurement value.

[6] = Particle size of nucleic acid lipid particles (Luc2-siRNA); type: physicochemical; conditions: compound/DSPC/cholesterol/DMG-PEG2000 50/10/38.5/1.5
In short: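 Lipid particles formed from oil phase (test lipid/DSPC/cholesterol/DMG-PEG2000, 50/10/38.5/1.5 molar, 20 mmol/L total in ethanol) micromixed 1:3 with Luc2-siRNA in pH 4 acetate buffer (19.7 μmol/L); siRNA/lipid 339 mol/mol, PBS-diluted and dialyzed. Size measured on ELS-Z2 dynamic light scattering.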

[7] = Luc2-siRNA lipid particles using the compound, siRNA 0.1 to 100 nmol/L, concentration at which Luc expression is knocked down to 50%, read-out: IC50

Row | SMILES | IC50 [1, 7] | Nucleic acid encapsulation rate [2] | Nucleic acid encapsulation rate [3] | Particle size (nm) [4] | Particle size (nm) [6] | Relative amount of FVII protein (%) [5] | IC50 [1]
1 | CCCCC/C=C\C/C=C\CCCCCCCCC(CCCCCCCC/C=C\C/C=C\CCCCC)OC(=O)OCCN(CC)CCN(C)C [Example 24, 2-((2-(Dimethylamino)ethyl)(ethyl)amino)ethyl((6Z,9Z,28Z,31Z)-heptatriaconta-6,9,28,31-tetraen-19-yl)carbonate] | 41 nM | 67% | 88% | 66.2 nm | 62.0 nm | 24% | –
2 | CCCCCCCCCC(=O)OCCCCCCC(CCCCCCOC(=O)CC(CCCCCCC)CCCCCCC)OC(=O)OCCN(CC)CCN(CC)CC (centres unmarked) [Example 78, 12-(6-(Decanoyloxy)hexyl)-3,6-diethyl-10-oxo-9,11-dioxa-3,6-diazooctadecan-18-yl 3-heptyldecanoate] | – | 78% | 75% | 74.2 nm | 71.7 nm | 10% | 16 nM
3 | CCCCCC/C=C\CCCCCCCC(=O)OCCCCCCC(CCCCCCOC(=O)CCCCCCC/C=C\CCCCCC)OC(=O)OCCN(CC)CCN(CC)CC [Example 46, 7-(((2-((2-(Diethylamino)ethyl)(ethyl)amino)ethoxy)carbonyl)oxy)tridecane-1,13-diyl(9Z,9′Z)-bis(hexadec-9-enoate)] | 17 nM | 84% | 80% | 68.4 nm | 71 nm | 18% | –
4 | CCCCC/C=C\C/C=C\CCCCCCCCC(CCCCCCCC/C=C\C/C=C\CCCCC)OC(=O)OCCN(CCCCCCCC)CCN(C)C [Example 52, 2-((2-(Dimethylamino)ethyl)(octyl)amino)ethyl((6Z,9Z,28Z,31Z)-heptatriaconta-6,9,28,31-tetraen-19-yl)carbonate] | 27 nM | 83% | 80% | 73.1 nm | 79.9 nm | 19% | –
5 | CCCCCCCCCCC(CCCCCCCCC(=O)OCC(CCCC)CCCCCC)OC(=O)OCCN(CCN(CC)CC)C(C)C (centres unmarked) [Example 69, 2-Butyloctyl 12-decyl-3-ethyl-6-isopropyl-10-oxo-9,11-dioxa-3,6-diazahenicosan-21-oate] | 28 nM | 97% | 98% | 86.8 nm | 67.6 nm | 6% | –
6 | CCCCCCCCCC(CCCCCCCCC)COC(=O)CCCC(CCCCCC)OC(=O)OCCN(CCN(CC)CC)C(C)C (centres unmarked) [Example 124, 2-Nonylundecyl 3-ethyl-12-hexyl-6-isopropyl-10-oxo-9,11-dioxa-3,6-diazahexadecan-16-oate] | – | 84% | 69% | 73.4 nm | 68.3 nm | 8% | –
7 | CCCCCCCC(CCCCCCC)COC(=O)CCCCCCCCC(CCCCCC)OC(=O)OCCN(CCN(CC)CC)C(C)C (centres unmarked) [Example 133, 2-Heptylnonyl 3-ethyl-12-hexyl-6-isopropyl-10-oxo-9,11-dioxa-3,6-diazahenicosan-21-oate] | – | 78% | 78% | 75.8 nm | 75.8 nm | 16% | –
8 | CCCCC/C=C\C/C=C\CCCCCCCCC(CCCCCCCC/C=C\C/C=C\CCCCC)OC(=O)OCCN(CCN(CC)CC)C(C)C [Example 42, 2-((2-(Diethylamino)ethyl)(isopropyl)amino)ethyl((6Z,9Z,28Z,31Z)-heptatriaconta-6,9,28,31-tetraen-19-yl)carbonate] | – | 70% | 78% | 68.1 nm | 70 nm | 9% | –

Now from value to compound, other results behind:

Row | IC50 [1, 7] | Nucleic acid encapsulation rate [2] | Nucleic acid encapsulation rate [3] | Particle size (nm) [4] | Particle size (nm) [6] | SMILES | Relative amount of FVII protein (%) [5] | IC50 [1]
9 | 23 nM | 83% | 81% | 78.7 nm | 74.6 nm | CCCCCCCC(=O)OCCN(CCOC(=O)OC(CCCCCC)CCCCCCCCC(=O)OCC(CCCC)CCCCCC)CCN(CC)CC (centres unmarked) [Example 88, 2-Butyloctyl 3-ethyl-12-hexyl-6-(2-(octanoyloxy)ethyl)-10-oxo-9,11-dioxa-3,6-diazahenicosan-21-oate] | 2% | –
10 | 17 nM | 85% | 87% | 66.1 nm | 60.7 nm | CCCCCCCCCC(=O)OCCN(CCOC(=O)OC(CCCCCC)CCCC(=O)OCC(CCCCCC)CCCCCCCC)CCN(CC)CC (centres unmarked) [Example 110, 2-Hexyldecyl 6-(2-(decanoyloxy)ethyl)-3-ethyl-12-hexyl-10-oxo-9,11-dioxa-3,6-diazahexadecan-16-oate] | 2% | –
11 | 37 nM | 85% | 80% | 66.4 nm | 62.4 nm | CCCCCCCCCCCC(=O)OCCN(CCOC(=O)OC(CCCCCC)CCCC(=O)OCC(CCCC)CCCCCC)CCN(CC)CC (centres unmarked) [Example 106, 2-Butyloctyl 6-(2-(dodecanoyloxy)ethyl)-3-ethyl-12-hexyl-10-oxo-9,11-dioxa-3,6-diazahexadecan-16-oate] | 2% | –
12 | – | 85% | 75% | 74.2 nm | 66.8 nm | CCCCCCCCC(=O)OCCN(CCOC(=O)OC(CCCCCC)CCCCCCCCC(=O)OCCC(CCCCC)CCCCC)CCN(CC)CC (centres unmarked) [Example 126, 3-Pentyloctyl 3-ethyl-12-hexyl-6-(2-(nonanoyloxy)ethyl)-10-oxo-9,11-dioxa-3,6-diazahenicosan-21-oate] | 9% | –
